Where a name gives a salt, the structure may show the parent alone.
Key:
[1] = Microsomal stability assay, mouse; assay type: in vitro ADME; conditions: mouse liver microsomes
Description: Mouse and human liver microsomes were thawed slowly on ice. A total of 5 mg/mL of microsomes, 2 μL of a 100 μM solution of EDT and 183 μL of 100 mM phosphate buffer were incubated 5 min at 37 °C in a water bath. Reactions were initiated using 10 μL of 20 mM NADPH. Samples were incubated in three replicates at 37 °C under gentle agitation at 150 rpm. At 0, 5, 15, 30, and 60 min, reactions were terminated by the addition of 180 μL of acetonitrile. After centrifugation (4000 rpm, 10 min), samples were then analyzed by liquid chromatography/tandem mass spectrometry (LC–MS/MS). Peak areas of the respective time point of the compound were normalized to the peak area at time point 0 min. Then half-life was calculated using linear regression from log percentage (t1/2 = − 0.693/k).

[2] = test system: Salmonella Typhimurium TA100; assay: Ames test, TA100; assay type: cell-based
Description: (§1) Before the test, Salmonella Typhimurium (S. Typhimurium) TA97a, TA98, TA100, TA102, TA1535 and Escherichia coli WP2uvrA pKM101 (pKM101) were first checked for their genetic integrity, including biotin dependence, rfa marker (crystal violet), biotin, histidine dependence and presence of the plasmid pKM101 (ampicillin resistance) or pAQ1 (tetracycline resistance). […] The maximum concentration of EDT was also screened using a preliminary experiment.
(§2) DMSO (0.1 mL) was directly incorporated into 1.9 mL melted top agar as the vehicle control. […] Each strain (0.1 mL, 6–7 log10 CFU/mL) was added into 2 mL of top agar in which comprised 0.5 mL S9 (10%), serial concentrations of EDT (2000, 400, 80, 16 and 3.2 μg/plate), DMSO or control chemicals for testing with the S9. For testing without S9, 0.5 mL phosphate buffer saline (PBS, pH 7.4) replaced the S9 mix. Then, the obtained top agar was melted, poured onto the surface of […] and swirled to distribute the top agar to all surfaces of medium, followed by incubation at 37 °C for 48 h. The resultant colonies were counted manually as the number of revertant colonies per plate. The experiments were performed in triplicate and the results were expressed as the average ± SD.

[3] = test system: Escherichia coli WP2uvrA pKM101; assay: Ames test, pKM101
Description: as §1, §2

[4] = test system: GFP expression in S. aureus ATCC 29,213; assay: Green fluorescent protein (GFP) inhibition assay; assay type: cell-based, Staphylococcus aureus; conditions: 1 and 4 μM, co-incubation 4 h, fluorescence microscopy
Description: The inhibition assay against GFP expression was performed according to our previous report[41] with minor modification. Plasmids carried erythromycin resistant genes were labeled with GFP and electrotransformed into S. aureus. After screenings using erythromycin, S. aureus strain expressing GFP was then obtained and grown to mid-logarithmic phase, followed by collecting centrifugally and re-suspending with PBS buffer. The obtained suspensions were co-incubated with EDT and tiamulin with the final concentrations of 1 and 4 μM, respectively, for 4 h at 37 °C. The cells were subsequently collected by centrifugation to perform imaging using fluorescence microscopy after re-suspending with PBS buffer.

[5] = test system: MRSA-337371; assay: Post-antibiotic effect (PAE) test, viable counting; assay type: cell-based, methicillin-resistant Staphylococcus aureus; conditions: 1 h exposure; for PAE values, concentration dependence: 1×, 2×, 4× and 8× MIC
Description: The PAE of EDT against MRSA-337371 was determined using a standard viable counting method. We selected 1 × , 2 × , 4 × and 8 × MICs of EDT and tiamulin (0.0313 and 0.5 μg/mL, respectively), to conduct PAE test on MRSA strains. The strains (1 × 10^5 CFU/mL) were placed in MHB broth test tubes containing the above four concentrations of EDT and tiamulin, respectively, and cultured in a shaking bed at 37 °C for 1 h, followed by centrifuging for 10 min at 4000 r/min. The supernatants were discarded and the precipitations were dissolved with 2 mL normal saline to centrifuge. The same procedure was repeated three times. The final bacterial precipitates were taken and cultured in MHB broth with the initial concentration of 5.5 Log CFU/mL at 37 °C in a shaking bed. Samples were then taken at 0, 1, 2, 3, 4, 5, 6, 8, 12, 18 and 24 h to dilute 10–100,000 times and the 10 μL dilutions were evenly smear on MHA plate medium to culture at 37 °C for 48 h. Finally, the average numbers of colonies on the plates were obtained and the PAE values were calculated as hour using equation PAE = T − C, in which T was the time required for the increase of 1 log10 CFU/mL after the removal of drugs and C was the time required for the number of MRSA in the control tube to increase by 1 log10 CFU/mL. Experiments were performed in triplicate.

C=CC1(C)CC(OC(=O)CSc2nc(C)c(C(=O)OCC)c(C)n2)C2(C)C(C)CCC3(CCC(=O)C32)C(C)C1O (stereo not drawn) [EDT, 14-O-[(5-ethoxycarbonyl-4,6-dimethylpyrimidine-2-yl)thioacetyl] mutilin]
half-life at 1 μM [1]: 30.1 min
microsomal CLint at 1 μM [1]: 46 µL/min/mg
number of revertant colonies per plate ([2]; TA100, 3.2 μg/plate, +S9): 119.67 ± 7.33
number of revertant colonies per plate ([2]; TA100, 3.2 μg/plate, −S9): 109.00 ± 8.00
number of revertant colonies per plate ([2]; TA100, 16 μg/plate, +S9): 103.67 ± 9.33
number of revertant colonies per plate ([2]; TA100, 16 μg/plate, −S9): 101.00 ± 9.00
number of revertant colonies per plate ([2]; TA100, 80 μg/plate, +S9): 118.67 ± 14.33
number of revertant colonies per plate ([2]; TA100, 80 μg/plate, −S9): 105.33 ± 13.67
number of revertant colonies per plate ([2]; TA100, 400 μg/plate, +S9): 134.33 ± 12.67
number of revertant colonies per plate ([2]; TA100, 400 μg/plate, −S9): 129.67 ± 15.33
number of revertant colonies per plate ([2]; TA100, 2000 μg/plate, +S9): 137.00 ± 14.00
number of revertant colonies per plate ([2]; TA100, 2000 μg/plate, −S9): 122.67 ± 11.33
number of revertant colonies per plate ([3]; pKM101, 3.2 μg/plate, +S9): 50.33 ± 2.67
number of revertant colonies per plate ([3]; pKM101, 3.2 μg/plate, −S9): 42.00 ± 3.00
number of revertant colonies per plate ([3]; pKM101, 16 μg/plate, +S9): 54.00 ± 4.00
number of revertant colonies per plate ([3]; pKM101, 16 μg/plate, −S9): 46.00 ± 5.00
number of revertant colonies per plate ([3]; pKM101, 80 μg/plate, +S9): 44.00 ± 4.00
number of revertant colonies per plate ([3]; pKM101, 80 μg/plate, −S9): 41.33 ± 3.67
number of revertant colonies per plate ([3]; pKM101, 400 μg/plate, +S9): 53.00 ± 5.00
number of revertant colonies per plate ([3]; pKM101, 400 μg/plate, −S9): 51.33 ± 3.67
number of revertant colonies per plate ([3]; pKM101, 2000 μg/plate, +S9): 50.33 ± 3.67
number of revertant colonies per plate ([3]; pKM101, 2000 μg/plate, −S9): 47.00 ± 4.00
inhibition of GFP expression (green fluorescence intensity) [4]: effectively inhibited the expression of GFP
PAE values, concentration dependence [5]: increased PAE values in a concentration-dependent manner
PAE values compared with tiamulin ([5]; at four tested concentrations (1×, 2×, 4×, 8× MIC)): extremely significantly higher than that of tiamulin

C=C[C@]1(C)C[C@@H](OC(=O)CSCCN(CC)CC)[C@]2(C)[C@H](C)CC[C@]3(CCC(=O)[C@H]32)[C@@H](C)[C@@H]1O [tiamulin, Tiamulin fumarate, reference compound]
inhibition of GFP expression (green fluorescence intensity) [4]: inhibited GFP expression
PAE values, concentration dependence [5]: increased PAE values in a concentration-dependent manner
